Test results from patent US20230322670A1, “DIPYRROLIDINE-1-ONE COMPOUNDS AND THEIR PREPARATION METHOD” (Poseidon Pharmaceutical Co., Ltd., priority 2020, published 2023).

Test system: not listed separately
Assay: Antitumor activity test, sulfonyl rhodamine B (SRB) method
Assay type: cell-based, human
Settings: compound concentration 10^−5 M, A-549 cells cultured 72 hours, OD560
Description: (§1) Antitumor activity test: Sulfonyl rhodamine B (SRB) method was used to determine the in vitro anti-tumor activity of A-549 […] cancer cells. A-549 human […] cancer cells in logarithmic growth were inoculated into a 96 well microculture plate with the amount of 90 μL/well. 24 hours later, the solutions respectively containing the compounds 1a, 1b, 1c, 1d, 1e, 1f, 1g, 1h, and 1i of the disclosure were added to the wells with each 10 μL/well, and three wells for each concentration. A cell-free zero adjustment hole was also provided. The concentrations of the compounds 1a, 1b, 1c, 1d, 1e, 1f, 1g, 1h, and 1i in corresponding solution were all 10^−5 M. The tumor cells were cultured at 37° C. under 5% CO2 for 72 hours. The culture medium was discarded, and 100 μL/well of 10% TCA was added to the cells for fixing at 4° C. for 1 hour. The cells were washed three times with distilled water, and dried naturally. 4 mg/mL SRB (Sigma) staining solution of 100 μL/well was added for staining at room temperature for 15 minutes, washed three times with 1% acetic acid aqueous solution, and dried naturally. 100 μL/well of 10 mM Tris base aqueous solution was further added. Then, the optical density (OD560) value was measured using an enzyme-linked immunosorbent assay at a wavelength of 560 nm. The inhibition rate of the tested compounds on tumor cell growth was calculated according to the formula: (control group OD value-administration group OD value)/control group OD value×100%.

| Molecule | Inhibitory rates on tumor cell growth (%) |
| --- | --- |
| COC(=O)CCc1c(C)[nH]c(C=C2NC(=O)C(CCS(=O)(=O)c3ccc(C)cc3)=C2C)c1C [Compound 1i, 3,7,9-trimethyl-8-(2-methoxycarbonylethyl)-2-(2-nenenebap-toluenesulfonylethyl)-dipyrrolomethen-1-one] | 28.4 |
| 9-tert-butyloxycarbonyl-3,7-dimethyl-8-(2-methoxycarbonyl ethyl)-2-(2-p-tolylene sulfonyl group ethyl)-dipyrrolomethen-1-one [Compound 1b] | 57.0 |
| 3,7,9-trimethyl-8-(2-carboxyethyl) -2-(2-p-toluenesulfoethyl)-Dipyrrolidene-1-one [Compound 1f] | 23.5 |
| 3,7,9-trimethyl-8-(2-methoxycarbonyl ethyl)-2-(2-p-tolylene sulfonyl group ethyl)-dipyrrolidone [Compound 1h] | 11.7 |
| COC(=O)CCc1c(C(=O)OC(C)(C)C)[nH]c(C=C2NC(=O)C(CCS(=O)(=O)c3ccc(C)cc3)=C2C)c1C [Compound 1c, 9-tert-butyloxycarbonyl-3,7-dimethyl-8-(2-methoxycarbonylethyl)-2-(2-nenenebap-toluenesulfonylethyl)-dipyrrolomethen-1-one] | 34.4 |
| 3,7-dimethyl-8-(2-ethoxycarbonylethyl) -2-(2-p-toluenesulfoethyl)-dipyrrolidene-1-one [Compound 1g] | 35.6 |
| 9-tert butoxycarbonyl-2,7-dimethyl-8-(2-methoxycarbonylethyl)-3-(2-p-toluenesulfoethyl)-dipyrrolidene-1-one [Compound 1a] | 72.3 |

Test system: A-549 human breast cancer cells
Assay: as above
Assay type: cell-based
Settings: Homo sapiens, A549, compound concentration 10^−5 M, A-549 cells cultured 72 hours, OD560, read-out: Inhibitory rates on tumor cell growth (%)
Description: as §1

| Molecule | inhibition at 10 µM [%] |
| --- | --- |
| COC(=O)CCc1c(C)[nH]c(/C=C2\NC(=O)C(CC[S+]([O-])c3ccc(C)cc3)=C2C)c1C (stereo not drawn) [Compound 1e, 3,7,9-trimethyl-8-(2-methoxycarbonylethyl)-2-(2-p-tolylenesulfonylgroupethyl)-dipyrrolidone] | 63.4 |
| COC(=O)CCc1c(C)[nH]c(/C=C2\NC(=O)C(CCSc3ccc(C)cc3)=C2C)c1C [Compound 1d, 3,7,9-trimethyl-8-(2-methoxycarbonylethyl) -2-(2-p-toluenesulfoethyl)-dipyrrolidene-1-one] | 37.8 |
